This data set can be described thus: Stability in aqueous solution (PBS or saline) followed by HPLC. The class given is physicochemical. Particulars: for Amount of compound remaining (%): 25° C., 0.5 mM. The method, then: Using high pressure liquid chromatography (HPLC), the stability of each of the tested compounds was determined by following its respective chemical character over time in either phosphate buffered saline (PBS) and/or 0.85% saline solution (sodium chloride). In each case, 0.5 mM of the tested compound in PBS or saline solution was incubated at 25° C. or at 37° C. for 20 hours or, in some cases, up to two days (48 hours).

Entries after “also recorded” stand apart in the source; their conditions may differ.

On to `C#CCN(C)CCc1ccc(O)c2ncccc12` [Compound 3, 5-[2-(methyl-2-propyn-1-ylamino)ethyl]-8-quinolinol], for which, for the setting “PBS and/or saline solution”, the “Stability in aqueous solution (in words)” value is “highly stable chemically; also recorded: ^+Compound 3 was stable for up to 48 hours at 25 °C in both saline and PBS”. The “Amount of compound remaining (%)” value runs as follows: (PBS, 0.5 hours) 100%; (PBS, 2 hours) 100%; (PBS, 20 hours) 100%; (PBS, 48 hours) 100%; (saline, 0.5 hours) 100%; (saline, 2 hours) 100%. For the same molecule, the “Amount of compound remaining (%)” value is, setting by setting: (saline, 20 hours) 100%; (saline, 48 hours) 100%.

The values are drawn from patent publication US9034303B2, “Neuroprotective and neuro-restorative iron chelators and monoamine oxidase inhibitors and uses thereof” (priority 2010, dated 2015).
